Source: patent US5296495A, “Thiazolylbenzofuran derivatives and pharmaceutical composition comprising the same” (Fujisawa Pharmaceutical Co., Ltd., priority 1991, dated 1994)
Where a name gives a salt, the structure may show the parent alone.

Target: T1, Leukotriene D4 receptor (Cavia porcellus, UniProt Q2NNR5)
T1 construct: The trachea and lung were removed; from tissue; host or cells: guinea pig (male Hartley) trachea and lung, crude membrane fraction
T1 sequence (Q2NNR5 1-340): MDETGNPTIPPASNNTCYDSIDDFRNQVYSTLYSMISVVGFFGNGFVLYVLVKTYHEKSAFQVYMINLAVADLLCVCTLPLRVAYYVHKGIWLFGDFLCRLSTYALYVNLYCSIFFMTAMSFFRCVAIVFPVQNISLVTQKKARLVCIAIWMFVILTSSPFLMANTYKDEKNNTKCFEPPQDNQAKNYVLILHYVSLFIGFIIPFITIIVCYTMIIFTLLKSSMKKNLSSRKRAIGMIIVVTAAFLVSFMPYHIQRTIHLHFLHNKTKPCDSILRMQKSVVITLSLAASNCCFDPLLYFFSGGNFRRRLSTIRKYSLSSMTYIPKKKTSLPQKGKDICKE
Test: 3H-Leukotriene D4 receptor binding (guinea pig crude lung membrane)
Settings: 3H-Leukotriene D4 (0.3 nM), pH 7.5, 25° C., 30 minutes
Protocol: ^3 H-Leukotriene D4 receptor binding (i) Test Method (a) Crude lung membrane preparation Male Hartly strain guinea pigs were sacrificed by decapitation. The trachea and lung were removed and homogenized buffer (0.25M sucrose, 10 mM Tris-HCl pH 7.5, 0.1 mM EDTA) by using Polytoron (Kinematica). The homogenate was centrifuged (1000×g, 10 min) to remove tissue clumps and the supernatant was centrifuges (14000×g, 20 min) to yield pellets. The pellets were resuspended in buffer (5 mM Tris-HCl pH 7.5), homogenized with a teflon homogenizer and centrifuged (14000×g, 20 min) to yield pellets which were referred to as crude membrane fractions. The obtained pellets were stored at -70° C. until use. (b) ^3 H-Leukotriene D4 binding to preparation membrane Frozen crude membrane fractions were thawed and resuspended in Medium 1 (10 mM Tris-HCl pH 7.5, 10 mM CaCl2, 10 mM MgCl2, 5 mM cysteine, 5 mM glycine). In binding assays, ^3 H-Leukotriene D4 (0.3 nM) and drug were incubated with 100 μl of the membrane preparation in Medium 1 at 25° C. for 30 minutes in a final volume of 500 μl. Separation of receptor-bound from free ^3 H-Leukotriene D4 is achieved by immediate filtration through Whatman GF/B filters under vacuum and washed three times with 5 ml of ice-cold buffer (10 mM Tris-HCl pH 7.5). Non-specific binding was defined as binding in the presence of 1 μM Leukotriene D4. The radioactivity retained on rinsed filters was determined by a liquid-scintillation counter (Packerd TRI-CARB 4530).

Row | Structure (SMILES) | IC50 [µM]
1 | CC(C)(C)c1csc(-c2cc3cc(OCc4cccc(-c5nnn[nH]5)c4)ccc3o2)n1 [13-2), 5-{3-[2-(4-tert-Butylthiazol-2-yl)benzofuran-5-yloxymethyl]phenyl}-1H-tetrazole] | 0.0178
2 | CC(C)(Cc1ccc2oc(-c3nc(C(C)(C)C)cs3)cc2c1)C(=O)Nc1nnn[nH]1 [19-2), 4-tert-Butyl-2-[5-{2-methyl-2-(1H-tetrazol-5-yl)carbamoylpropyl}benzofuran-2-yl]thiazole] | 0.0677
3 | CC(C)(C)c1csc(-c2cc3cc(OCc4ccccc4Cc4nnn[nH]4)ccc3o2)n1 [Example 12, 5-{2-(2-(4-tert-butylthiazol-2-yl)benzofuran-5-yloxymethyl]phenylmethyl}-1H-tetrazole] | 0.0382

The next lines start with the values.

Row | IC50 [µM] | Structure (SMILES)
4 | 0.0488 | Cc1ccccc1S(=O)(=O)NC(=O)c1ccccc1COc1ccc2oc(-c3nc(C(C)(C)C)cs3)cc2c1 [Example 18, 4-tert-butyl-2-{5-[2-(2-methylbenzenesulfonamidocarbonyl)phenylmethoxy]benzofuran-2-yl}thiazole]
5 | 0.0138 | CC(C)(C)c1csc(-c2cc3cc(OCc4ccccc4CC(=O)O)ccc3o2)n1 [Example 51, 4-tert-butyl-2-[5-(2-carboxymethylphenylmethoxy)benzofuran-2-yl]thiazole hydrochloride]
